Results on 24 compounds are retold here after patent US9562060B2, “Heterocyclic pyridone compound, and intermediate, preparation method and use thereof” (SHANGHAI HUILUN LIFE SCIENCE & TECHNOLOGY CO., LTD, priority 2011, dated 2017).

pIC50: −log10 of the molar value. Bounds are passed on as bounds.

For this assay, the target named is T1, c-Met kinase (Homo sapiens, UniProt P08581).
T1 construct: purchased Invitrogen PV3143
T1 sequence (P08581 25-1390): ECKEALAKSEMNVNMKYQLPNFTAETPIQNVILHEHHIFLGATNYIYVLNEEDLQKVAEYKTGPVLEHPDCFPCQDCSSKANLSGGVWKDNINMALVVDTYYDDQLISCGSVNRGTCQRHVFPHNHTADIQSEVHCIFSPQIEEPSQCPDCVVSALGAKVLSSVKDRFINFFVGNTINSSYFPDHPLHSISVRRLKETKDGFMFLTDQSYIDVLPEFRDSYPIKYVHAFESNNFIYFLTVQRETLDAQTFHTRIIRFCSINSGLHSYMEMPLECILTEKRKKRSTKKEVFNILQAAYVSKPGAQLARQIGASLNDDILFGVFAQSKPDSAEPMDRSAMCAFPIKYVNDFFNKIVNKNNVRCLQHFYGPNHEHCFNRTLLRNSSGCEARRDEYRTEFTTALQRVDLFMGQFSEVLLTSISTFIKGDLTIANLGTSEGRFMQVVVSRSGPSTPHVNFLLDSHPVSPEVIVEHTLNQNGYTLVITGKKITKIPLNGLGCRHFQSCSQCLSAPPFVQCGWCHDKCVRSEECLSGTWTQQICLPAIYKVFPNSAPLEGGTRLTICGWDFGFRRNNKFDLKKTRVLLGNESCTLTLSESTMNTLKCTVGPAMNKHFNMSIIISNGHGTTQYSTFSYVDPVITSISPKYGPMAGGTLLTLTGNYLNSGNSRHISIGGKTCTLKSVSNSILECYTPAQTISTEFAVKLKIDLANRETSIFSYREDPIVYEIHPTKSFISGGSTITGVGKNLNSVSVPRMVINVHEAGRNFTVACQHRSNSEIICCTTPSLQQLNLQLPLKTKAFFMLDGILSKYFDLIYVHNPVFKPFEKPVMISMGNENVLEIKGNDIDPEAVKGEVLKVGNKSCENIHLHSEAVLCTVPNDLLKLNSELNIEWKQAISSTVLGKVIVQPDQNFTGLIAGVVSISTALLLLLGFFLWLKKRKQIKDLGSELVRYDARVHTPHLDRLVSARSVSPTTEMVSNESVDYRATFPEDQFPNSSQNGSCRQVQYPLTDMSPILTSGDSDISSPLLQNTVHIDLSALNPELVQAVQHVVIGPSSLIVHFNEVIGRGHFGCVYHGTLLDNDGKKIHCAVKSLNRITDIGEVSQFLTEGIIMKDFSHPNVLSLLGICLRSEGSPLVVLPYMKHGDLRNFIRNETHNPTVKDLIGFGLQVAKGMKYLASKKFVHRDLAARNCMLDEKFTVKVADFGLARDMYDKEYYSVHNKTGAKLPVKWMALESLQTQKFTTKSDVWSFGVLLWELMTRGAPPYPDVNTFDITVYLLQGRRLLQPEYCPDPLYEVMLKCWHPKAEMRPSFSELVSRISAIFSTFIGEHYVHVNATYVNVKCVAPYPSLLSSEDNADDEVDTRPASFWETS
Nature of the assay: Inhibitory activity of compound to c-Met kinases (Z'-LYTE kinase assay kit). The conditions noted are these: Tyr 6 substrate peptide, read-out: Strength of activity (inhibition on c-Met kinase, IC50). The format is biochemical. Here is the method:
The inhibitory activity of the compound to c-Met kinases in vitro is determined through the following method.
The method described below can be used to determine the inhibiting capacity of the compound of the present invention on the c-Met kinase activity, and the inhibiting capacity is represented by IC50. The half inhibitory concentration IC50 (a concentration of the compound for inhibiting the enzyme activity to 50%) of the compound is obtained by: mixing and reacting a certain amount of kinase with a specific substrate and different concentrations of test compound, and then labeling the substrate with an anti-phosphotyrosine antibody and a […], and finally quantitatively determining the c-Met kinase activity through a time-resolved fluorescence method.
The specific experiment is implemented by using a Z′-LYTE kinase assay kit (Invitrogen, item PV4122). First, the test compound is diluted into 8 different concentrations from 100 μM at an interval of 1:5 with an ATP solution (Invitrogen, item PV3227); 5 μL 2×c-Met (Invitrogen, item PV3143) and 2×Z′-LYTE Tyr 6 substrate peptide are respectively taken up, and added to a 384-well microtiter plate, 5 μL diluted different concentrations of test compound are added in sequence, and the lid is closed. The microtiter plate is incubated for 60 min at room temperature (20° C. to 25° C.); and then 5 μL […] is added, and the lid is closed. The microtiter plate is incubated for 60 min at room temperature (20° C. to 25° C.); and then 5 μL termination reagent is added to the reaction well, to terminate the reaction. Finally, the fluorescence intensity (OD400) of each well is determined in a fluorescence analyzer (excitation wavelength: 400 nm). The inhibition rate is calculated, and the half inhibitory concentration (IC50) of the compound is calculated according to the inhibition rates of different concentrations.
For a negative control group, except that test compound (replaced by 5 μL ATP solution) is not added, all the other reagents are added. In addition, an enzyme-free control group (that is, blank group) is set.
In the case of `CN(C)C/C=C/C(=O)Nc1cc(Oc2ccc(NC(=O)c3cc4ncsc4n(-c4ccc(F)cc4)c3=O)cc2F)ccn1` [Embodiment 15], the pIC50 was 7.00 to 8.00.

On to `CN(CCO)c1c(C(=O)Nc2ccc(Oc3ccnc4[nH]ccc34)c(F)c2)c(=O)n(-c2ccc(F)cc2)c2scnc12` [Embodiment 59], for which the pIC50 was 6.00 to 7.00.

In the case of `Cn1cnc2cc(C(=O)Nc3ccc(Oc4ccnc(N)c4Cl)c(F)c3)c(=O)n(-c3ccc(F)cc3)c21` [Embodiment 33], the pIC50 was 7.00 to 8.00.

Turning to `CN(C)c1c(C(=O)Nc2ccc(Oc3ccnc(N)c3Cl)c(F)c2)c(=O)n(-c2ccc(F)cc2)c2scnc12` [Embodiment 53], the pIC50 is greater than 8.00.

On to `CN1CCOc2c1cc(C(=O)Nc1ccc(Oc3ccnc(N)c3Cl)c(F)c1)c(=O)n2-c1ccc(F)cc1` [Embodiment 46], for which the pIC50 was 7.00 to 8.00.

As to `CCOc1c(C(=O)Nc2ccc(Oc3ccnc(N)c3)c(F)c2)c(=O)n(-c2ccc(F)cc2)c2scnc12` [Embodiment 48], the pIC50 is 6.00 to 7.00.

Consider `CN(CCO)c1c(C(=O)Nc2ccc(Oc3ccnc(N)c3Cl)c(F)c2)c(=O)n(-c2ccc(F)cc2)c2scnc12` [Embodiment 57], for which the pIC50 was 6.00 to 7.00.

On to `CCOc1c(C(=O)Nc2ccc(Oc3ccnc4cc(OC)ccc34)c(F)c2)c(=O)n(-c2ccc(F)cc2)c2scnc12` [Embodiment 50], for which the pIC50 is 7.00 to 8.00.

For `CN(C)CC1CCN(C(=O)Nc2cc(Oc3ccc(NC(=O)c4cc5ncsc5n(-c5ccc(F)cc5)c4=O)cc3F)ccn2)CC1` [Embodiment 13], the pIC50 is 7.00 to 8.00.

Regarding `CN(C)c1c(C(=O)Nc2ccc(Oc3ccnc4[nH]ccc34)c(F)c2)c(=O)n(-c2ccc(F)cc2)c2scnc12` [Embodiment 55], the pIC50 is 7.00 to 8.00.

Turning to `COc1cc2c(Oc3ccc(NC(=O)c4cc5c(n(-c6ccc(F)cc6)c4=O)N(C)CCO5)cc3F)ccnc2cc1OCCCN1CCOCC1` [Embodiment 42], the pIC50 is 6.00 to 7.00.

Consider `Cn1cnc2cc(C(=O)Nc3ccc(Oc4ccnc(N)c4)c(F)c3)c(=O)n(-c3ccc(F)cc3)c21` [Embodiment 35], for which the pIC50 is 6.00 to 7.00.

Regarding `COc1cc2c(Oc3ccc(NC(=O)c4cc5c(n(-c6ccc(F)cc6)c4=O)OCCN5C)cc3F)ccnc2cc1OCCCN1CCOCC1` [Embodiment 45], the pIC50 was 6.00 to 7.00.

As to `CN1CCOc2cc(C(=O)Nc3ccc(Oc4ccnc(N)c4)c(F)c3)c(=O)n(-c3ccc(F)cc3)c21` [Embodiment 39], the pIC50 was 7.00 to 8.00.

In the case of `CN1CCOc2c1cc(C(=O)Nc1ccc(Oc3ccnc(N)c3)c(F)c1)c(=O)n2-c1ccc(F)cc1` [Embodiment 43], the pIC50 is 7.00 to 8.00.

Consider `COc1ccc2c(Oc3ccc(NC(=O)c4cc5c(n(-c6ccc(F)cc6)c4=O)OCCN5C)cc3F)ccnc2c1` [Embodiment 47], for which the pIC50 is greater than 8.00.

On to `CN(C)c1c(C(=O)Nc2ccc(Oc3ccnc(N)c3)c(F)c2)c(=O)n(-c2ccc(F)cc2)c2scnc12` [Embodiment 52], for which the pIC50 was 7.00 to 8.00.

With `Nc1nccc(Oc2ccc(NC(=O)c3cc4ncsc4n(-c4ccccc4CCO)c3=O)cc2F)c1Cl` [Embodiment 19], the pIC50 was greater than 8.00.

As for `CCOc1c(C(=O)Nc2ccc(Oc3ccnc(N)c3Cl)c(F)c2)c(=O)n(-c2ccc(F)cc2)c2scnc12` [Embodiment 49], the pIC50 was greater than 8.00.

As for `COc1ccc2c(Oc3ccc(NC(=O)c4cc5c(n(-c6ccc(F)cc6)c4=O)N(C)CCO5)cc3F)ccnc2c1` [Embodiment 40], the pIC50 was greater than 8.00.

With `O=C(Nc1ccc(Oc2ccnc(NC(=O)N3CCOCC3)c2)c(F)c1)c1cc2ncsc2n(-c2ccc(F)cc2)c1=O` [Embodiment 11], the pIC50 was 7.00 to 8.00.

Take `COc1cc2c(Oc3ccc(NC(=O)c4cc5nc(N(C)C)sc5n(-c5ccc(F)cc5)c4=O)cc3F)ccnc2cc1OCCCN1CCOCC1` [Embodiment 27]: the pIC50 was 7.00 to 8.00.

Turning to `COc1ccc2c(Oc3ccc(NC(=O)c4cc5cnn(C)c5n(-c5ccc(F)cc5)c4=O)cc3F)ccnc2c1` [Embodiment 30], the pIC50 is 6.00 to 7.00.

As for `CN(CCO)C(=O)Nc1cc(Oc2ccc(NC(=O)c3cc4ncsc4n(-c4ccc(F)cc4)c3=O)cc2F)ccn1` [Embodiment 14], the pIC50 was 7.00 to 8.00.
